According to patent publication US9540397B2, “BACE1 inhibitors” (Hoffmann-La Roche Inc., priority 2014, dated 2017):

Key:
[1] = system: Aβ40 in brain of wild-type mice; test: Lowering of Aβ40 in brain of wild-type mice; assay type: in vivo; details: Mus musculus, po; female C57Bl/6J mice, 30 mg/kg per os, 4 h; brain Aβ40 related to the value in the vehicle group; read-out: Aβ40 (wt mice, brain)
Experimental: Lowering of Aβ40 in Brain of Wild-Type Mice:
Animals and Housing Conditions.
Animals were maintained in a 12/12 h light/dark cycle, with lights starting at 6 a.m., and experiments were conducted during the light phase. Animal housing and experimental procedures were in line with ethical and legal guidelines and were authorized by local veterinary authorities.
Experiment. Female C57Bl/6J mice were treated with a dose of 30 mg/kg of the compounds, 3-4 animals per treatment group. The test compound was dissolved in 5% EtOH, 10% Solutol, and was applied per os at 10 mL/kg. After 4 h, the animals were sacrificed and brain and plasma were collected. The brain was cut into halves and immediately frozen on dry ice. Brain was used for measurement of Aβ40 and plasma was used for determination of compound exposure. […] Brain tissue was homogenized in 2% DEA buffer in a Roche MagnaLyser (20″, 4000 rpm) and subsequently centrifuged for 1 h at 100000 g. DEA was reduced to 0.2% in 50 mM NaCl and one-half of the DEA lysate was passed over an Oasis Solid phase extraction plate (Waters; cat. no. 186000679), which had been activated with MeOH and equilibrated in dH2O (1 mL each). After washes in 10% and 30% MeOH (1 mL each), the Aβ-peptides were eluted in 0.8 mL of 2% NH4OH in 90% MeOH. The eluate was dried over a N2 flow, and the dried sample was reconstituted in 30 μL of AlphaLISA assay buffer. Aβ40 was determined by an AlphaLISA assay (Perkin-Elmer). In a white 96-well, half area microplate (Perkin-Elmer cat. no. 6005561), 20 μL of the reconstituted sample were mixed with 5 μL of biotinylated BAP-24 (specific for C-terminus of Aβ40) (Brockhaus, M.; Grunberg, J.; Rohrig, S.; Loetscher, H.; Wittenburg, N.; Baumeister, R.; Jacobsen, H.; Haass, C. Caspasemediated cleavage is not required for the activity of presenilins in amyloidogenesis and NOTCH signaling. NeuroReport 1998, 9, 1481-1486.) stock=4.4 mg/mL, f.c.5.5 μg/mL), and 5 μL 252Q6 acceptor beads (252Q6 antibody, Invitrogen AMB0062) had been previously conjugated with AlphaLISA Acceptor beads (Perkin-Elmer cat. no. 6772002); final dilution 1:500). The mix was incubated for 1 h at RT in the dark. Then 20 μL of Streptavin-coated Donor Beads (Perkin-Elmer cat. no. 6760002, final dilution 1:125) were added and this final mix was incubated in the dark for another 30 min at RT before RFU was measured in an AlphaScreen Reader (Perkin-Elmer Envision 2104). The value obtained for Aβ40 in the treated animals was related to the value in the vehicle group and is given in %. Alternatively a commercial ELISA was used for Aβ40 determination (Wako ELISA: (“Human/Rat β Amyloid (40) ELISA kit Wako II”; cat nr. 294-64701) following the manufacture's instruction. Also here the Aβ-lowering efficacy was calculated as percentage of the vehicle group.

BACE1 = molecular target: T1, BACE1 (Homo sapiens, UniProt P56817); test: Cellular Aβ-lowering assay (Abeta 40 AlphaLISA, HEK293 APP cells); assay type: cell-based; details: 18-20 hrs incubation, Aβ40 in culture supernatant, read-out: BACE1 cell act. Aβ40 IC50
T1 construct: endogenous in cells; host or cells: HEK293 APP cells
T1 sequence (P56817 46-501): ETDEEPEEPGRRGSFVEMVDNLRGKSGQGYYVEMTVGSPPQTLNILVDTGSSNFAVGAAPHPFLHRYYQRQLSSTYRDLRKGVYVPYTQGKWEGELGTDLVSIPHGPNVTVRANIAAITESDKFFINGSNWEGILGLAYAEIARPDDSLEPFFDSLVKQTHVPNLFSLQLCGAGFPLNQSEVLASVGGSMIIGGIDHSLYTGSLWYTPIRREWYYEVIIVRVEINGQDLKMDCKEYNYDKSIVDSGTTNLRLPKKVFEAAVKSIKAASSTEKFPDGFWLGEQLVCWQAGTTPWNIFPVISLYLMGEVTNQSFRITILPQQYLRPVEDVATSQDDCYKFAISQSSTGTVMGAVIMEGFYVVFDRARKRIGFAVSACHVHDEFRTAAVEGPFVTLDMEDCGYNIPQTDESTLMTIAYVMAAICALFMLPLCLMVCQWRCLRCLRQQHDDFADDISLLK
Experimental: Cellular Aβ-lowering assay:
The Abeta 40 AlphaLISA Assay can be used. The HEK293 APP cells were seeded in 96 well Microtiter plates in cell culture medium (Iscove's, plus 10% (v/v) fetal bovine serum, penicillin/streptomycin) to about 80% confluency and the compounds were added at a 3× concentration in ⅓ volume of culture medium (final DMSO concentration was kept at 1% v/v). After 18-20 hrs incubation at 37° C. and 5% CO2 in a humidified incubator, the culture supernatants were harvested for the determination of AP 40 concentrations using Perkin-Elmer Human Amyloid beta 1-40 (high specificity) Kit (Cat#AL275C).
In a Perkin-Elmer White Optiplate-384 (Cat#6007290), 2 ul culture supernatants were combined with 2 μl of a 10× AlphaLISA Anti-hAβ Acceptor beads+Biotinylated Antibody Anti-Aβ 1-40 Mix ([…]/5 nM). After 1 hour room temperature incubation, 16 μl of a 1.25× preparation of Streptavidin (SA) Donor beads (25 μg/mL) were added and incubated for 30 minutes in the Dark. Light Emission at 615 nm was then recorded using EnVision-Alpha Reader. Levels of Aβ 40 in the culture supernatants were calculated as percentage of maximum signal (cells treated with 1% DMSO without inhibitor). The IC50 values were calculated using the Excel XLfit software.

SMILES | response vs control in vivo at 30 mg/kg [1] | IC50 (BACE1)
CC1(C)C(N)=N[C@](C)(c2nc(NC(=O)c3ncc(F)cc3Cl)ccc2F)[C@@H]2CCN=[S@@]21=O [Example 11AB, N-(6-((3aS,4R,8R)-6-amino-4,7,7-trimethyl-8-oxido-3,3a,4,7-tetrahydro-2H-isothiazolo[1,5-a][1,4]thiazin-4-yl)-5-fluoropyridin-2-yl)-3-chloro-5-fluoropicolinamide] | 100% | 3.5 nM
Cc1cc(Cl)cnc1C(=O)Nc1ccc(F)c([C@@]2(C)N=C(N)C(C)(C)[S@@]3(=O)=NCC[C@@H]23)n1 [Example 12AB, N-(6-((3aS,4R,8R)-6-amino-4,7,7-trimethyl-8-oxido-3,3a,4,7-tetrahydro-2H-isothiazolo[1,5-a][1,4]thiazin-4-yl)-5-fluoropyridin-2-yl)-5-chloro-3-methylpicolinamide] | 38% | 1.3 nM
CC1(C)C(N)=N[C@](C)(c2nc(NC(=O)c3ccc(OCF)cn3)ccc2F)[C@@H]2CCN=[S@@]21=O [Example 13AB, N-(6-((3aS,4R,8R)-6-amino-4,7,7-trimethyl-8-oxido-3,3a,4,7-tetrahydro-2H-isothiazolo[1,5-a][1,4]thiazin-4-yl)-5-fluoropyridin-2-yl)-5-(fluoromethoxy)picolinamide] | 86% | 9.8 nM
CC1(C)C(N)=N[C@](C)(c2nc(NC(=O)c3ccc(OC(F)F)cn3)ccc2F)[C@@H]2CCN=[S@@]21=O [Example 14AB, N-(6-((3aS,4R,8R)-6-amino-4,7,7-trimethyl-8-oxido-3,3a,4,7-tetrahydro-2H-isothiazolo[1,5-a][1,4]thiazin-4-yl)-5-fluoropyridin-2-yl)-5-(difluoromethoxy)picolinamide] | 61% | 6.3 nM
CC1(C)C(N)=N[C@](C)(c2nc(NC(=O)c3ccc(OCC(F)(F)C(F)F)cn3)ccc2F)[C@@H]2CCN=[S@@]21=O [Example 15AB, N-(6-((3aS,4R,8R)-6-amino-4,7,7-trimethyl-8-oxido-3,3a,4,7-tetrahydro-2H-isothiazolo[1,5-a][1,4]thiazin-4-yl)-5-fluoropyridin-2-yl)-5-(2,2,3,3-tetrafluoropropoxy)picolinamide] | 100% | 146 nM
COc1cnc(C(=O)Nc2ccc(F)c([C@@]3(C)N=C(N)C(C)(C)[S@@]4(=O)=NCC[C@@H]34)n2)cn1 [Example 16AB, N-(6-((3aS,4R,8R)-6-amino-4,7,7-trimethyl-8-oxido-3,3a,4,7-tetrahydro-2H-isothiazolo[1,5-a][1,4]thiazin-4-yl)-5-fluoropyridin-2-yl)-5-methoxypyrazine-2-carboxamide] | 89% | 8.6 nM
CC1(C)C(N)=N[C@](C)(c2nc(NC(=O)c3ncc(C#N)cc3Cl)ccc2F)[C@@H]2CCN=[S@@]21=O [Example 25AB, N-(6-((3aS,4R,8R)-6-amino-4,7,7-trimethyl-8-oxido-3,3a,4,7-tetrahydro-2H-isothiazolo[1,5-a][1,4]thiazin-4-yl)-5-fluoropyridin-2-yl)-3-chloro-5-cyanopicolinamide] | 56% | 0.5 nM
CC1(C)C(N)=N[C@](C)(c2nc(NC(=O)c3ncc(C#N)cc3Cl)ccc2F)[C@H]2CCN=[S@]21=O [Example 25BA, N-(6-((3aR,4R,8S)-6-amino-4,7,7-trimethyl-8-oxido-3,3a,4,7-tetrahydro-2H-isothiazolo[1,5-a][1,4]thiazin-4-yl)-5-fluoropyridin-2-yl)-3-chloro-5-cyanopicolinamide] | 117% | 15.5 nM
CC1(C)C(N)=N[C@](C)(c2nc(NC(=O)c3cnc(OC(F)F)cn3)ccc2F)[C@@H]2CCN=[S@@]21=O [Example 26AB, N-(6-((3aS,4R,8R)-6-amino-4,7,7-trimethyl-8-oxido-3,3a,4,7-tetrahydro-2H-isothiazolo[1,5-a][1,4]thiazin-4-yl)-5-fluoropyridin-2-yl)-5-(difluoromethoxy)pyrazine-2-carboxamide] | 82% | 7.7 nM
CC1(C)C(N)=N[C@](C)(c2nc(NC(=O)c3ccc(F)cn3)ccc2F)[C@@H]2CCN=[S@@]21=O [Example 27AB, N-(6-((3aS,4R,8R)-6-amino-4,7,7-trimethyl-8-oxido-3,3a,4,7-tetrahydro-2H-isothiazolo[1,5-a][1,4]thiazin-4-yl)-5-fluoropyridin-2-yl)-5-fluoropicolinamide] | 92% | 15 nM
CC1(C)C(N)=N[C@](C)(c2nc(NC(=O)c3ncc(OC(F)F)cc3Cl)ccc2F)[C@@H]2CCN=[S@@]21=O [Example 28AB, N-(6-((3aS,4R,8R)-6-amino-4,7,7-trimethyl-8-oxido-3,3a,4,7-tetrahydro-2H-isothiazolo[1,5-a][1,4]thiazin-4-yl)-5-fluoropyridin-2-yl)-3-chloro-5-(difluoromethoxy)picolinamide] | 100% | 2.8 nM
CC1(C)C(N)=N[C@](C)(c2nc(NC(=O)c3ncc(Cl)cc3Cl)ccc2F)[C@@H]2CCN=[S@@]21=O [Example 29AB, N-(6-((3aS,4R,8R)-6-amino-4,7,7-trimethyl-8-oxido-3,3a,4,7-tetrahydro-2H-isothiazolo[1,5-a][1,4]thiazin-4-yl)-5-fluoropyridin-2-yl)-3,5-dichloropicolinamide] | 88% | 0.6 nM
Cc1cc(C#N)cnc1C(=O)Nc1ccc(F)c([C@@]2(C)N=C(N)C(C)(C)[S@@]3(=O)=NCC(F)(F)C[C@H]23)n1 [Example 32AA, N-(6-((4aR,5R,9R)-7-amino-3,3-difluoro-5,8,8-trimethyl-9-oxido-2,3,4,4a,5,8-hexahydro-[1,4]thiazino[2,1-f][1,2]thiazin-5-yl)-5-fluoropyridin-2-yl)-5-cyano-3-methylpicolinamide] | 53% | 1.2 nM
CC1(C)C(N)=N[C@](C)(c2nc(NC(=O)c3ccc(F)cn3)ccc2F)[C@H]2CC(F)(F)CN=[S@@]21=O [Example 33AA, N-(6-((4aR,5R,9R)-7-amino-3,3-difluoro-5,8,8-trimethyl-9-oxido-2,3,4,4a,5,8-hexahydro-[1,4]thiazino[2,1-f][1,2]thiazin-5-yl)-5-fluoropyridin-2-yl)-5-fluoropicolinamide] | 83% | 90 nM
CC1(C)C(N)=N[C@](C)(c2nc(NC(=O)c3ccc(C#N)cn3)ccc2F)[C@H]2CC(F)(F)CN=[S@@]21=O [Example 34AA, N-(6-((4aR,5R,9R)-7-amino-3,3-difluoro-5,8,8-trimethyl-9-oxido-2,3,4,4a,5,8-hexahydro-[1,4]thiazino[2,1-f][1,2]thiazin-5-yl)-5-fluoropyridin-2-yl)-5-cyanopicolinamide] | 113% | 9.8 nM
